Results from article PMC8448163 (Antimicrobial Agents and Chemotherapy, 2021).
pEC50: −log10 of the molar value. Values joined by “and” are separate entries in the source; they are usually repeats but may differ in a detail not shown here. Identical values can stand only once. Like-named read-outs stand apart in the source and are kept apart here.

Assays:
healthy adult volunteers [1] = experiment: Phase 1 SAD study, safety and tolerability
[2] = healthy adult males (n = 14), single oral doses 200 mg to 2,000 mg; cited from earlier work
healthy adult volunteers [3] = experiment: Phase 1 MAD study, safety and tolerability
[4] = in vitro
in vivo [5] = settings: dog, po
CV-A16 = experiment: microbe, parasite or virus in culture; type: cell-based; settings: Enterovirus A, CVA16
[6] = test system: EV panel comprising 47 PV strains and 36 nonpolio EV strains; experiment: microbe, parasite or virus in culture; type: cell-based; settings: Enterovirus, read-out: EC50, mean
ECV-11 isolates = experiment: organism not typed; type: cell-based; settings: read-out: EC50, range
clinical [7] = settings: human, in vivo
poliovirus = settings: in vitro, in combination with capsid inhibitors including pocapavir; cited from earlier work
clinical [8] = settings: human, in vivo; remark: listed apart in the source
in vivo [9] = settings: rat, po
[10] = for mean and individual trough concentrations: LLOQ 1.00 ng/ml; for time of peak of mean plasma concentration: MAD BID
[11] = MAD, one participant, 2,000 mg BID cohort, day 7, normal two days later
[12] = SAD, 10-fold increase in dose from 200 mg to 2,000 mg

In the case of `C#CC[C@@H](C(=O)N[C@H](/C=C/C(=O)OCC)C[C@@H]1CCNC1=O)n1cccc(NC(=O)c2cc(C)on2)c1=O` [V-7404], the “deaths or SAEs” value (healthy adult volunteers [1]; SAD study) was “No deaths or SAEs were reported”, the “participants with moderate TEAEs” value (healthy adult volunteers [1]; SAD, V-7404 group, 1/24 participants) was 4.2% and the “participants with mild treatment-emergent AEs (TEAEs)” value (healthy adult volunteers [1]; SAD, V-7404 group, 4/24 participants) was 16.7%. The elevated lipase (healthy adult volunteers [1]; SAD, one participant, 1,000 mg cohort, day 2, asymptomatic, normal 3 days later) was 4.0 × the upper limit of normal (U, the tolerability [2] was “well tolerated with no serious adverse events (SAEs)” and the “deaths or SAEs” value (healthy adult volunteers [3]; MAD study) was “No deaths or SAEs were reported”. The “proportion of related TEAEs” value (healthy adult volunteers [3]; MAD, 1,000 mg QD) was 12.5%, the “proportion of related TEAEs” value (healthy adult volunteers [3]; MAD, 2,000 mg BID) was 75% and the “participants with increased lipase levels (asymptomatic) leading to discontinuation” value (healthy adult volunteers [3]; MAD, 2,000 mg BID cohort, 1/41 participants) was 2.4%. The “proportion of related TEAEs” value (healthy adult volunteers [3]; MAD, 2,000 mg QD) was 22.2%, the “participants with moderate TEAEs” value (healthy adult volunteers [3]; MAD, V-7404 group, 2/33 participants) was 6.1% and the “participants with mild TEAEs” value (healthy adult volunteers [3]; MAD, V-7404 group, 10/33 participants) was 30.3%. For the same compound, the amylase (healthy adult volunteers [3]; [11]) was 2.7 × ULN, the lipase (healthy adult volunteers [3]; [11]) was 4.5 × ULN and the genotoxicity study results [4] was “negative”. For the same compound, the NOAEL (in vivo [5]) was 1500 mg/kg/day, the pEC50 (CV-A16) was 5.22 and the EC50 [6] was 379 nM and 0.198 µg/mL. For the same compound, the pEC50 (ECV-11 isolates) was 6.45 to 7.49, the Tmax (clinical [7]) was 15 to 30 min and the Vd/F (clinical [7]; Vz/F) was 3780 L. For the same compound, the AUC (clinical [7]; po, 500 mg, AUC (AUC0–tau)) was 302 ng·h/mL, the Cmax (clinical [7]; po, 500 mg, Cmax) was 247 ng/mL and the Cmax at 14 days (clinical [7]; po, 500 mg, Cmax) was 370 ng/mL. For the same compound, the Vd/F at 14 days (clinical [7]; po, 500 mg, Vz/F) was 3020 L, the Tmax (clinical [7]; po, 500 mg, tmax) was 28.8 min and the Tmax at 14 days (clinical [7]; po, 500 mg, tmax) was 15 min. It also gave a half-life (clinical [7]; t1/2) of 79.2 min, a Tmax (clinical [7]; tmax(0–4 h)) of 30 min and a Tmax (clinical [7]; tmax(4–24 h)) of 45 min. For the same compound, the “geometric mean AUC0–inf lower for fed compared to fasted” value (SAD 500 mg) was 50%, the “geometric mean Cmax lower for fed compared to fasted” value (SAD 500 mg) was 66% and the “increase of geometric mean AUC0–inf” value [12] was 14.2 fold. For the same compound, the “increase of geometric mean Cmax” value [12] was 7.6 fold, the “time of peak of mean plasma concentrations” value (human, in vivo) was 0.25 to 0.75 h and the Cmax (human, in vivo, po, 500 mg) was 366.6 ng/mL. For the same compound, the “activity in combination with antiviral capsid inhibitors” value (poliovirus) was “synergistic activity”, the Tmax (clinical [8]) was 15 to 37.8 min and the AUC(0-inf) (clinical [8]; po, 200 mg, AUC (AUC0–inf)) was 77.4 ng·h/mL. The Cmax (clinical [8]; po, 200 mg, Cmax) was 83.3 ng/mL, the Vd/F (clinical [8]; po, 200 mg, Vz/F) was 1170 L and the half-life (clinical [8]; po, 200 mg, t1/2) was 18.9 min. It also gave a Tmax (clinical [8]; po, 200 mg, tmax) of 30 min, a half-life (clinical [8]; t1/2, range across cohorts) of 19.2 to 140 min and an NOAEL (in vivo [9]) of 1500 mg/kg/day. The “mean and individual trough concentrations” value ([10]; MAD 500 mg QD, days 2, 3, 7, 11 and 14) was “BLQ”, the “mean and individual trough concentrations” value ([10]; MAD 1,000 mg QD, days 2, 3, 7, 11 and 14) was “BLQ” and the “accumulation (RAUC and RCmax)” value ([10]; MAD 2,000 mg BID, day 14) was “no accumulation”. For the same compound, the mean trough concentrations ([10]; MAD 2,000 mg BID, days 2, 3, 7, 11 and 14) was “either BLQ or were less than twice the LLOQ of 1.00 ng/ml”, the “time of peak of mean plasma concentration” value ([10]; following the first dose of the day) was 0.50 h and the “time of peak of mean plasma concentration” value ([10]; following the second dose of the day, day 1) was 0.75 h. The “time of peak of mean plasma concentration” value ([10]; following the second dose of the day, day 14) was 0.50 h, the “RAUC and RCmax, all ratios” value ([10]; MAD QD, day 14, all dose levels) was “less than 1.5” and the mean trough concentrations ([10]; MAD, 2,000 mg QD) was “either BLQ or were less than twice the lower limit of quantification (LLOQ) of 1.00 ng/ml”. The CL/F ([10]; human, in vivo) was 1,987 liters/h, the CLss/F ([10]; human, in vivo) was 2125 L/h and the Vz/F ([10]; human, in vivo) was 6542 L. The t1/2 ([10]; human, in vivo) was 136.2 min, the CL/F ([10]; human, in vivo, po, 500 mg) was 2,076 liters/h and the “CL/F (CLss/F)” value ([10]; human, in vivo, po, 500 mg) was 1,656 liters/h.
